Species: Rattus norvegicus
Experiment: Open TG-GATES - Regimen: Daily Repeat
Assay type: toxicity, organism-based, Sprague-Dawley
Parameters: regimen Daily Repeat, gender Male, age 6 weeks
Settings: in vivo, po, route gavage; for APTT / Bas / Eos / Fbg / Ht / MCH / MCHC / MCV / Mono / Neu / PT / RBC / Ret: tissue Blood; for KIDNEY_L / KIDNEY_R / KIDNEY_TOTAL: tissue Kidney; for ALP / ALT / AST / BUN / CRE / Ca / Cl / DBIL / GLC / IP / K / LDH / Na / PL / RALB / TBIL / TC / TG / TP / gamma-GTP: tissue Plasma
[1] = 0 mg/kg, 72 h, dose level Control, time 3 day
[2] = 0 mg/kg, […], dose level Control, time 7 day
[3] = 0 mg/kg, […], dose level Control, time 14 day
[4] = 0 mg/kg, […], dose level Control, time 28 day
[5] = 60 mg/kg, 72 h, dose level Low, time 3 day
[6] = 60 mg/kg, […], dose level Low, time 7 day
[7] = 60 mg/kg, […], dose level Low, time 14 day
[8] = 60 mg/kg, […], dose level Low, time 28 day

Question: Which results are given for CC(=O)Nc1nnc(S(N)(=O)=O)s1 [ACETAZOLAMIDE]?
Answer: TERMINAL_BW [1]: 229 g; APTT [1]: 21.2 s; Bas [1]: 0%; Eos [1]: 1%; Fbg [1]: 302.2 mg/dL; Ht [1]: 39.4%; MCH [1]: 21.3 pg; MCHC [1]: 34%; MCV [1]: 62.8 fL; Mono [1]: 3%; Neu [1]: 16%; PT [1]: 17 s; RBC [1]: 628.2 x10_4/ul; Ret [1]: 6.9%; KIDNEY_L [1]: 1 g; KIDNEY_R [1]: 1 g; KIDNEY_TOTAL [1]: 2 g; ALP [1]: 1759.2 IU/L; ALT [1]: 45.6 IU/L; AST [1]: 81.2 IU/L; BUN [1]: 17.8 mg/dL; CRE [1]: 0.1 mg/dL; Ca [1]: 10.8 mg/dL; Cl [1]: 106.6 meq/L; DBIL [1]: 0 mg/dL; GLC [1]: 193.6 mg/dL; IP [1]: 7.5 mg/dL; K [1]: 4.3 meq/L; LDH [1]: 208.8 IU/L; Na [1]: 142 meq/L; PL [1]: 135 mg/dL; RALB [1]: 3.1 g/dL; TBIL [1]: 0.008 mg/dL; TC [1]: 71.2 mg/dL; TG [1]: 86.2 mg/dL; TP [1]: 5.5 g/dL; gamma-GTP [1]: 1.8 IU/L; TERMINAL_BW [2]: 260.7 g; TERMINAL_BW [3]: 306.6 g; TERMINAL_BW [4]: 366.7 g; APTT [2]: 21.8 s; Bas [2]: 0%; Eos [2]: 0.8%; Ht [2]: 39.7%; MCH [2]: 21.9 pg; MCHC [2]: 35.8%; MCV [2]: 61.1 fL; Mono [2]: 2.4%; Neu [2]: 11.8%; PT [2]: 16.1 s; RBC [2]: 650.4 x10_4/ul; Ret [2]: 5.7%; APTT [3]: 23.3 s; Bas [3]: 0%; Eos [3]: 0.8%; Fbg [3]: 297.2 mg/dL; Ht [3]: 40%; MCH [3]: 20.5 pg; MCHC [3]: 35.3%; MCV [3]: 58.2 fL; Mono [3]: 2.2%; Neu [3]: 14%; PT [3]: 16.5 s; RBC [3]: 688.2 x10_4/ul; Ret [3]: 5.1%; APTT [4]: 25.9 s; Bas [4]: 0%; Eos [4]: 0.6%; Fbg [4]: 316 mg/dL; Ht [4]: 44%; MCH [4]: 19 pg; MCHC [4]: 34.3%; MCV [4]: 55.6 fL; Mono [4]: 2%; Neu [4]: 12.4%; RBC [4]: 791.4 x10_4/ul; Ret [4]: 2.8%; KIDNEY_L [2]: 1 g; KIDNEY_R [2]: 1.1 g; KIDNEY_TOTAL [2]: 2.1 g; KIDNEY_L [3]: 1.2 g; KIDNEY_R [3]: 1.2 g; KIDNEY_TOTAL [3]: 2.4 g; KIDNEY_L [4]: 1.3 g; KIDNEY_R [4]: 1.3 g; KIDNEY_TOTAL [4]: 2.6 g; ALP [2]: 1905.2 IU/L; ALT [2]: 37.6 IU/L; AST [2]: 72.6 IU/L; BUN [2]: 22 mg/dL; CRE [2]: 0.2 mg/dL; Ca [2]: 10.8 mg/dL; Cl [2]: 106.4 meq/L; DBIL [2]: 0 mg/dL; GLC [2]: 203 mg/dL; IP [2]: 6.9 mg/dL; K [2]: 4.7 meq/L; LDH [2]: 193.6 IU/L; Na [2]: 142.2 meq/L; PL [2]: 132.6 mg/dL; RALB [2]: 3.1 g/dL; TBIL [2]: 0.002 mg/dL; TC [2]: 63.2 mg/dL; TG [2]: 101.8 mg/dL; TP [2]: 5.3 g/dL; gamma-GTP [2]: 1.6 IU/L; ALP [3]: 1570.4 IU/L; AST [3]: 67.2 IU/L; BUN [3]: 19.8 mg/dL; CRE [3]: 0.2 mg/dL; Ca [3]: 10.6 mg/dL; DBIL [3]: 0 mg/dL; GLC [3]: 197.6 mg/dL; IP [3]: 7.4 mg/dL; K [3]: 4.3 meq/L; LDH [3]: 171.4 IU/L; Na [3]: 143.6 meq/L; PL [3]: 142.4 mg/dL; RALB [3]: 3.1 g/dL; TBIL [3]: 0.002 mg/dL; TC [3]: 67 mg/dL; TP [3]: 5.7 g/dL; gamma-GTP [3]: 2.4 IU/L; ALP [4]: 1140.2 IU/L; ALT [4]: 40.6 IU/L; AST [4]: 63.8 IU/L; BUN [4]: 18.8 mg/dL; CRE [4]: 0.2 mg/dL; Cl [4]: 105.4 meq/L; DBIL [4]: 0 mg/dL; GLC [4]: 207.8 mg/dL; IP [4]: 6.2 mg/dL; K [4]: 4.1 meq/L; LDH [4]: 138.8 IU/L; Na [4]: 142.6 meq/L; RALB [4]: 3.3 g/dL; TBIL [4]: 0.004 mg/dL; TC [4]: 69.8 mg/dL; TG [4]: 178.4 mg/dL; TP [4]: 6.1 g/dL; gamma-GTP [4]: 2.2 IU/L; TERMINAL_BW [5]: 226.3 g; APTT [5]: 20.3 s; Bas [5]: 0%; Eos [5]: 1%; Fbg [5]: 272.8 mg/dL; Ht [5]: 39.2%; MCHC [5]: 34%; MCV [5]: 60.6 fL; Mono [5]: 2.6%; Neu [5]: 15.4%; PT [5]: 16.8 s; RBC [5]: 648.4 x10_4/ul; Ret [5]: 5.3%; KIDNEY_L [5]: 1 g; KIDNEY_R [5]: 1 g; KIDNEY_TOTAL [5]: 2 g; ALP [5]: 1702 IU/L; ALT [5]: 42.2 IU/L; AST [5]: 67.4 IU/L; BUN [5]: 17 mg/dL; CRE [5]: 0.2 mg/dL; Ca [5]: 10.6 mg/dL; Cl [5]: 106.4 meq/L; DBIL [5]: 0 mg/dL; GLC [5]: 185.4 mg/dL; IP [5]: 7.3 mg/dL; K [5]: 4.1 meq/L; LDH [5]: 188.6 IU/L; Na [5]: 142.8 meq/L; RALB [5]: 2.9 g/dL; TBIL [5]: 0 mg/dL; TC [5]: 73.6 mg/dL; TG [5]: 137.8 mg/dL; TP [5]: 5.2 g/dL; gamma-GTP [5]: 1.4 IU/L; TERMINAL_BW [6]: 265.9 g; TERMINAL_BW [7]: 293.1 g; TERMINAL_BW [8]: 367.2 g; APTT [6]: 20.2 s; Bas [6]: 0%; Eos [6]: 0.8%; Fbg [6]: 299.4 mg/dL; Ht [6]: 37%; MCH [6]: 21.7 pg; MCV [6]: 61 fL; Mono [6]: 2.4%; Neu [6]: 13.4%; PT [6]: 16.1 s; RBC [6]: 606.4 x10_4/ul; Ret [6]: 6.9%; APTT [7]: 22.7 s; Bas [7]: 0%; Eos [7]: 0.8%; Fbg [7]: 302.4 mg/dL; MCHC [7]: 35.9%; MCV [7]: 57.5 fL; Mono [7]: 2.2%; Neu [7]: 12.8%; RBC [7]: 687.6 x10_4/ul; Ret [7]: 4.3%; APTT [8]: 23.2 s; Bas [8]: 0%; Eos [8]: 1%; Fbg [8]: 311 mg/dL; Ht [8]: 42.3%; MCH [8]: 19.2 pg; MCHC [8]: 34.3%; MCV [8]: 56 fL; Mono [8]: 1.6%; Neu [8]: 12%; RBC [8]: 755.4 x10_4/ul; Ret [8]: 2.9%; KIDNEY_L [6]: 1.2 g; KIDNEY_R [6]: 1.3 g; KIDNEY_TOTAL [6]: 2.5 g; KIDNEY_L [7]: 1.2 g; KIDNEY_R [7]: 1.2 g; KIDNEY_TOTAL [7]: 2.4 g; KIDNEY_L [8]: 1.4 g; KIDNEY_R [8]: 1.5 g; KIDNEY_TOTAL [8]: 2.9 g; ALP [6]: 1603.6 IU/L; ALT [6]: 40.6 IU/L; AST [6]: 69 IU/L; BUN [6]: 19.6 mg/dL; CRE [6]: 0.1 mg/dL; Ca [6]: 10.6 mg/dL; Cl [6]: 107.4 meq/L; DBIL [6]: 0 mg/dL; GLC [6]: 192.2 mg/dL; IP [6]: 7.2 mg/dL; K [6]: 4.2 meq/L; LDH [6]: 140.4 IU/L; Na [6]: 143.8 meq/L; PL [6]: 139.6 mg/dL; RALB [6]: 3 g/dL; TBIL [6]: 0.002 mg/dL; TC [6]: 71.8 mg/dL; TG [6]: 127 mg/dL; TP [6]: 5.2 g/dL; gamma-GTP [6]: 1.8 IU/L; ALP [7]: 1453.4 IU/L; ALT [7]: 41.2 IU/L; AST [7]: 65 IU/L; BUN [7]: 17 mg/dL; CRE [7]: 0.2 mg/dL; Ca [7]: 10.5 mg/dL; Cl [7]: 105.8 meq/L; DBIL [7]: 0 mg/dL; GLC [7]: 185.2 mg/dL; IP [7]: 6.7 mg/dL; K [7]: 3.8 meq/L; LDH [7]: 123.6 IU/L; Na [7]: 144 meq/L; PL [7]: 140.8 mg/dL; RALB [7]: 3 g/dL; TBIL [7]: 0.002 mg/dL; TC [7]: 65.8 mg/dL; TG [7]: 152.6 mg/dL; TP [7]: 5.5 g/dL; gamma-GTP [7]: 2 IU/L; ALP [8]: 1253 IU/L; ALT [8]: 41 IU/L; AST [8]: 63 IU/L; BUN [8]: 19 mg/dL; CRE [8]: 0.2 mg/dL; Ca [8]: 10.5 mg/dL; Cl [8]: 106.8 meq/L; DBIL [8]: 0 mg/dL; GLC [8]: 184.2 mg/dL; IP [8]: 6.2 mg/dL; K [8]: 4 meq/L; LDH [8]: 129 IU/L; Na [8]: 143 meq/L; PL [8]: 142.8 mg/dL; RALB [8]: 3.1 g/dL; TBIL [8]: 0.002 mg/dL; TC [8]: 70.8 mg/dL; TG [8]: 159.2 mg/dL; TP [8]: 5.9 g/dL; gamma-GTP [8]: 2.2 IU/L; TERMINAL_BW (200 mg/kg, 72 h, dose level Middle, time 3 day): 215.5 g
